Target: T1, Lp-PLA2 (Homo sapiens, UniProt Q13093)
T1 construct: aliquoted and thawed 40 μL of pooled human plasma was previously added; from tissue; host or cells: pooled human plasma
T1 sequence (Q13093 22-441): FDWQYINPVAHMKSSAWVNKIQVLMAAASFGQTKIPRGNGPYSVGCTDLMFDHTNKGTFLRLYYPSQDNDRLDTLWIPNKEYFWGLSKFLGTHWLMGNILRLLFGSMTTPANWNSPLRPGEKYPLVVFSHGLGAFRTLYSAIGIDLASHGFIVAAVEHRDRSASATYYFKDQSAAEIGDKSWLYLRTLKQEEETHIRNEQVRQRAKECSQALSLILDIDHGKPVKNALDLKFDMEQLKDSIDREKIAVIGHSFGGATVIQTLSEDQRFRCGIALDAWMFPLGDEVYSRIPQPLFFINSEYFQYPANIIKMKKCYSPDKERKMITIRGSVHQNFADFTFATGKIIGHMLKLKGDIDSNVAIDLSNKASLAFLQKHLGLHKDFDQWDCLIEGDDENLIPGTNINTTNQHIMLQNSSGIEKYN
Test: Lipoprotein-associated phospholipase A2 (Lp-PLA2) human plasma assay (Thio-PAF assay)
Format: biochemical
Details: Lp-PLA2 human plasma assay (Thio-PAF), pooled human plasma, 30-min pre-incubation at room temperature

| Compound | IC50 [nM] |
| --- | --- |
| CN1C(=O)[C@]23C[C@H]1CN2c1cc(OCc2cc(F)c(Oc4cnn(C)c4)c(F)c2)nc(=O)n1C3 [Example 167, (3S,11aR)-7-((3,5-difluoro-4-((1-methyl-1H-pyrazol-4-yl)oxy)benzyl)oxy)-2-methyl-3,4-dihydro-9H,11H-3,11a-methanopyrazino[1′,2′:3,4] imidazo[1,2-c]pyrimidine-1,9(2H)-dione] | 19.4 |
| O=c1nc(OCc2cc(F)c(Oc3ccnc(C(F)F)c3)c(F)c2)cc2n1CC13CC(CN21)C3 [Example 176, 3-((4-((2-(difluoromethyl)pyridin-4-yl)oxy)-3,5-difluorobenzyl)oxy)-7,8-dihydro-1H,6H, 9H-7,8a-methanopyrrolo[1′,2′:3,4]imidazo [1,2-c]pyrimidin-1-one] | 13.9 |
| O=c1nc(OCc2cccc(F)c2F)cc2n1CC13CC(CN21)C3 [Example 45, 3-((2,3-difluorobenzyl)oxy)-7,8-dihydro-1H,6H,9H-7,8a-methanopyrrolo[1′,2′:3,4] imidazo[1,2-c]pyrimidin-1-one] | 71.8 |
| CC12CCCCN1c1cc(OCc3cc(F)c(Oc4cnc(C(F)(F)F)nc4)c(F)c3)nc(=O)n1C2 (centres unmarked) [Example 67, 3-((3,5-difluoro-4-((2-(trifluoromethyl)pyrimidin-5-yl)oxy)benzyl)oxy)-9a-methyl-6,7,8,9,9a,10-hexahydro-1H-pyrido[1′,2′:3,4]imidazo [1,2-c]pyrimidin-1-one] | 8.7 |
| O=c1nc(OCc2cc(F)c(Oc3ccnc(Cl)c3)c(F)c2)cc2n1CC13CC(CN21)C3 [Example 38, 3-((4-((2-chloropyridin-4-yl)oxy)-3,5-difluorobenzyl)oxy)-7,8-dihydro-1H,6H,9H-7,8a-methanopyrrolo[1′,2′:3,4] imidazo[1,2-c]pyrimidin-1-one] | 8.5 |
| O=c1nc(OCc2cc(F)c(Oc3ccccc3)c(F)c2)cc2n1C[C@]13CO[C@H](CN21)C3 [Example 135, (3S,11aR)-7-((3,5-difluoro-4-phenoxybenzyl)oxy)-3,4-dihydro-1H,9H,11H-3,11a-methanopyrimido[6′,1′:2,3] imidazo[5,1-c][1,4]oxazin-9-one] | 17.2 |
| N#Cc1cc(COc2cc3n(c(=O)n2)C[C@]24CO[C@H](CN32)C4)ccc1Oc1ccc(C(F)(F)F)cc1 [Example 21] | 6.4 |
| O=c1nc(OCc2cc(F)c(F)c(F)c2)cc2n1C[C@@]13CO[C@@H](CN21)C3 [Example 35, (3R,11aS)-7-((3,4,5-trifluorobenzyl)oxy)-3,4-dihydro-1H,9H,11H-3,11a-methanopyrimido[6′,1′:2,3] imidazo[5,1-c][1,4]oxazin-9-one] | 38.8 |
| O=c1nc(OCc2ccc(Oc3ccnc(C(F)F)c3)c(F)c2)cc2n1CC13CC(CN21)C3 [Example 162] | 6.5 |
| O=c1nc(OCCc2ccc(Oc3ccc(Cl)c(C(F)(F)F)c3)c(F)c2)cc2n1CC13CC(CN21)C3 [Example 186, 3-(4-(4-chloro-3-(trifluoromethyl)phenoxy)-3-fluorophenethoxy)-7,8-dihydro-1H,6H,9H-7,8a-methanopyrrolo[1′,2′:3,4]imidazo[1,2-c] pyrimidin-1-one] | 7.4 |
| N#Cc1cc(Oc2ccc(COc3cc4n(c(=O)n3)C[C@@]35CO[C@@H](CN43)C5)cc2F)cc(C(F)(F)F)c1 [Example 31] | 7.1 |
| O=c1nc(OCc2ccc(Oc3ccnc(C(F)(F)F)c3)c(F)c2)cc2n1C[C@@]13C[C@@H](CN21)N(Cc1ccccc1)C3 [Example 178, (3S,11aS)-2-benzyl-7-((3-fluoro-4-((2-(tri-fluoromethyl)pyridin-4-yl)oxy)benzyl)oxy)-1,2,3,4-tetrahydro-9H,11H-3,11a-methano-pyrazino[1′,2′:3,4]imidazo[1,2-c]pyrimidin-9-one] | 6.2 |
| N#Cc1cc(F)cc(COc2cc3n(c(=O)n2)CC24CC(F)(CN32)C4)c1 [Example 159] | 128 |

More lines, in order of falling IC50, values ahead:

| IC50 [nM] | Compound |
| --- | --- |
| 6.1 | O=c1nc(OCc2ccc(Oc3cccc(C(F)(F)F)c3)c(F)c2)cc2n1CC13CC(CN21)C3 [Example 124, 3-((3-fluoro-4-(3-(trifluoromethyl)phenoxy)benzyl)oxy)-7,8-dihydro-1H,6H,9H-7,8a-methanopyrrolo[1′,2′:3,4] imidazo[1,2-c]pyrimidin-1-one] |
| 5 | O=C(c1ccccc1)N1C[C@]23C[C@H]1CN2c1cc(OCc2ccc(Oc4ccnc(C(F)(F)F)c4)c(F)c2)nc(=O)n1C3 [Example 174] |
| 4.7 | O=c1nc(OCCc2ccc(Oc3ccc(Cl)c(C(F)(F)F)c3)c(F)c2)cc2n1C[C@]13CO[C@H](CN21)C3 [Example 185] |
| 4.3 | N#Cc1cc(Oc2ccc(COc3cc4n(c(=O)n3)C[C@]35CO[C@H](CN43)C5)cc2F)cc(C(F)(F)F)c1 [Example 12] |
| 4.3 | O=c1nc(OCc2cc(F)c(Oc3cccc(OC(F)(F)F)c3)c(F)c2)cc2n1C[C@]13CO[C@H](CN21)C3 [Example 145, (3S,11aR)-7-((3,5-difluoro-4-(3-(trifluoromethoxy)phenoxy)benzyl)oxy)-3,4-dihydro-1H,9H,11H-3,11a-methanopyrimido[6′,1′:2,3] imidazo[5,1-c][1,4]oxazin-9-one] |
| 4 | N#Cc1cc(COc2cc3n(c(=O)n2)CC24CC(CN32)C4)ccc1Oc1ccnc(C(F)(F)F)c1 [Example 43] |
| 3.8 | O=c1nc(OCc2cc(F)c(Oc3ccc(F)c(F)c3)c(F)c2)cc2n1C[C@]13CO[C@H](CN21)C3 [Example 136] |
| 3.4 | CC12CCCN1c1cc(OCCc3ccc(Oc4ccc(Cl)c(C(F)(F)F)c4)cc3)nc(=O)n1C2 (centres unmarked) [Example 61, 3-(4-(4-chloro-3-(trifluoromethyl)phenoxy)phenethoxy)-8a-methyl-7,8,8a,9-tetrahydro-1H,6H-pyrrolo[1′,2′:3,4]imidazo [1,2-c]pyrimidin-1-one] |
| 3.3 | N#Cc1cc(COc2cc3n(c(=O)n2)CC24CCC(CC2)N34)ccc1Oc1ccnc(C(F)(F)F)c1 [Example 51] |
| 2.7 | N#Cc1cc(COc2cc3n(c(=O)n2)CC24CCC(CC2)N34)ccc1Oc1ccc(Cl)c(C(F)(F)F)c1 [Example 50, 5-(((1-oxo-7,8-dihydro-1H,6H,9H-6,8a-ethanopyrrolo[1′,2′:3,4]imidazo[1,2-c]pyrimidin-3-yl)oxy)methyl)-2-(4-chloro-3-(trifluoromethyl)phenoxy) benzonitrile] |
| 2.5 | O=c1nc(OCc2cc(F)c(Oc3ccc(Cl)c(F)c3)c(F)c2)cc2n1C[C@]13CO[C@H](CN21)C3 [Example 143] |
| 2.5 | O=c1nc(OCc2cc(F)c(Oc3ccc(Cl)c(C(F)(F)F)c3)c(F)c2)cc2n1C[C@]13CO[C@H](CN21)C3 [Example 4, (3S,11aR)-7-((4-(4-chloro-3-(trifluoromethyl)phenoxy)-3,5-difluorobenzyl)oxy)-3,4-dihydro-1H,9H,11H-3,11a-methanopyrimido[6′-,1′:2,3] imidazo[5,1-c][1,4]oxazin-9-one] |
| 1.9 | NC12CN3c4cc(OCc5ccc(Oc6ccnc(C(F)(F)F)c6)c(F)c5)nc(=O)n4CC3(C1)C2 [Example 202, 7-Amino-3-((3-fluoro-4-((2-(trifluoromethyl)pyridin-4-yl)oxy)benzyl)oxy)-7,8-dihydro-1H,6H,9H-7,8a-methanopyrrolo[1′,2′:3,4]imidazo[1,2-c]pyrimidin-1-one] |

From patent publication US20230044787A1, “TRICYCLE DIHYDROIMIDAZOPYRIMIDONE DERIVATIVE, PREPARATION METHOD THEREOF, PHARMACEUTICAL COMPOSITION AND USE THEREOF” (priority 2019, published 2023)
